How the values were obtained:
Histamine H4 receptor [1] = biological target: T1, Histamine H4 receptor (Homo sapiens, UniProt Q9H3N8); experiment: Displacement of [3H]histamine from human recombinant histamine H4 receptor expressed in SK-N-MC cells after 45 mins by competition binding analysis; format: cell-based
Histamine H4 receptor [2] = biological target: T1, Histamine H4 receptor; experiment: Agonist activity at human H4 receptor; details: read-out: EC50
Histamine H4 receptor [3] = biological target: T1, Histamine H4 receptor; experiment: Antagonist activity at human histamine H4 receptor expressed in SK-N-MC cells assessed as reduction of histamine-induced inhibition of cAMP-mediated beta-galactosidase reporter gene activity treated 10 mins prior to histamine challenge by microplate reader analysis; format: functional, cell-based; details: read-out: pA2 (converted)

| Ki (Histamine H4 receptor [1]) | EC50 (Histamine H4 receptor [2]) | Kb (Histamine H4 receptor [3]) | Structure (SMILES) |
| --- | --- | --- | --- |
| 20 nM | – | – | CN1CCN(C(=O)c2nc3cc(Cl)ccc3[nH]2)CC1 |
| 1.7 nM | > 10000 nM | < 0.1 nM | CN[C@@H]1CCN(c2cc(C34CC5CC(CC(C5)C3)C4)nc(N)n2)C1 |
| 25 nM | > 10000 nM | – | CN[C@H]1CCN(c2cc(C3CCCC3)nc(N)n2)C1 |
| 2.4 nM | > 10000 nM | 0.398 nM | CN[C@@H]1CCN(c2cc(C3CCC3)nc(N)n2)C1 |
| 39 nM | – | – | CN1CCN(C(=O)c2nc3c([nH]2)CCCC3)CC1 |
| – | > 10000 nM | 25.1 nM | CN[C@@H]1CCN(c2nc(N)nc3c2CCCC3)C1 |
| – | > 10000 nM | 12.6 nM | CCc1cc(N2CC[C@@H](N)C2)nc(N)n1 |
| > 10000 nM | – | – | CN[C@@H]1CCN(c2cc(C(F)(F)F)nc(N)n2)C1 |
| 5 nM | – | – | Cc1cnc(OCCCCC2CCN(C)CC2)cc1-c1nc2c(C)c(F)ccc2[nH]1 |
| – | > 10000 nM | 7.94 nM | CN[C@@H]1CCN(c2cc(C3CC3)nc(N)n2)C1 |
| 1.5 nM | > 10000 nM | 3.98 nM | CCCCc1cc(N2CC[C@@H](NC)C2)nc(N)n1 |
| 5 nM | – | – | CN1CCN(c2ncnc3c2oc2ccc(Cl)cc23)CC1 |
| 5.5 nM | 1300 nM | 25.1 nM | Nc1nc(C2CCCC2)cc(N2CC(N)C2)n1 |
| > 10000 nM | – | – | CN[C@@H]1CCN(c2cc(Cl)nc(N)n2)C1 |

| Structure (SMILES) | Ki (Histamine H4 receptor [1]) | EC50 (Histamine H4 receptor [2]) | Kb (Histamine H4 receptor [3]) |
| --- | --- | --- | --- |
| CN1C[C@@H]2CN(c3cc(C4CCCC4)nc(N)n3)C[C@@H]2C1 | – | > 10000 nM | 20 nM |
| Nc1nc(C2CCCC2)cc(N2C[C@H]3CCCN[C@H]3C2)n1 | 1.8 nM | > 10000 nM | < 0.1 nM |

From ChEMBL document CHEMBL3232922, “Discovery and SAR of 6-alkyl-2,4-diaminopyrimidines as histamine H₄ receptor antagonists” (J Med Chem, 2014)
